# Assay results taken from article PMC7374640 (Nature structural & molecular biology, 2020).
# Assays:
# [1] = molecular target: human insulin receptor, isoform B (hIR, IR-B) (human) (UniProt P06213)
# [2] = cited from earlier work
# insulin receptor = settings: cited from earlier work
Substance,receptor affinity relative to native insulin (fold lower) (insulin receptor),also measured
DOI with TyrB20 substitution (peptide),–,"bioactivity (insulin receptor activation assay), fold increase against DOI [1]: 5 fold"
HisA8 human insulin: human insulin with ThrA8 substituted by histidine (literature),–,increase in potency on substitution of human insulin ThrA8 by histidine [2]: three-fold
des-heptapeptide(B24-B30)-[GlyB23-α-carboxamide]insulin,~ 500 fold,–
des-hexapeptide(B25-B30)-[PheB24-α-carboxamide]insulin,~ 20 fold,–
des-pentapeptide(B26-B30)-[PheB25-α-carboxamide]insulin,native-like,–
